Laboratory results: patent US20220184081A1, “ANTIPRURITIC AGENT USING PAC1 RECEPTOR ANTAGONIST” (KAGOSHIMA UNIVERSITY, priority 2019, published 2022)

Assays:
[1] = system: PACAP-induced itch behavior in mice; experiment: Itch behavior induced by PACAP intradermal administration; assay type: in vivo, mouse; conditions: simultaneous intradermal administration with PACAP, 0.01 to 1 nmol; FIG. 7A, 8, 9
Text: SLN indicates intradermal administration of normal saline. DMSO (10% solution, dissolved in normal saline) is a solvent for PA-8.
SLN indicates intradermal administration of normal saline. VEH (10% DMSO solution, dissolved in normal saline) is a solvent for PA-8 and the compound 2o.
SLN indicates intradermal administration of normal saline. VEH (10% DMSO solution, dissolved in normal saline) is a solvent for PA-9 and the compound 3d.

[2] = system: chloroquine-induced itch behavior in mice; experiment: Itch behavior induced by chloroquine intradermal administration; assay type: in vivo, mouse; conditions: intrathecal pre-administration (i.t., 10 minutes before i.d.), 1 nmol; chloroquine 100 μg/10 μL; FIG. 10
Description: Chloroquine (100 μg/10 μL) was intradermally injected into the waist of each mouse (intradermal injection, i.d.). The reaction of biting, licking or scratching the injected site was defined as itch behavior, and the behavioral time was counted every 5 minutes. […] DMSO (10% solution, dissolved in normal saline) is a solvent for PA-8 or PA-9.

psoriasis mouse model = experiment: Psoriasis mouse model (imiquimod); assay type: in vivo, ICR mice; conditions: 30 mg/kg p.o. 30 minutes before 1 hour video observation; FIG. 14
Description: The present test was carried out with reference to the method of van der Fits et al. that is a test system published as a method for evaluating itch in animals (van der Fits L., Mounts S., Voerman J S A., et al.: Imiquimod-Induced Psoriasis-Like Skin Inflammation in Mice Is Mediated via the IL-23/IL-17 Axis, J. Immunol., 182, 5836-5845, 2009).
Five-week-old ICR mice (20 mice) were each placed in a cage, and were then conditioned for 1 week. Thereafter, three days before initiation of the test, the waist of each mouse was shaved. Then, 62.5 mg of commercially available imiquimod cream (5% Beselna Cream; MOCHIDA PHARMACEUTICAL CO., LTD.) was applied onto the shaved waist skin of the mice once a day for 5 days, so as to produce imiquimod-induced psoriasis model. Twenty-four hours after the final application of the cream (Day 5), video observation was carried out for 1 hour. The shaved 20 mice were divided into 5 groups (4 mice per group), namely, a 30 mg/kg PA-8 oral (p.o.) administration group, a 30 mg/kg compound 2o oral (p.o.) administration group, a 30 mg/kg PA-9 oral (p.o.) administration group, a 30 mg/kg compound 3d (p.o.) administration group, and a solvent administration group (VEH: oral administration of 10% DMSO aqueous solution). Oral administration was carried out 30 minutes before initiation of the video observation.

mouse PAC1 receptor = target: T1, mouse PAC1 receptor (Mus musculus, UniProt P70205); experiment: CREB phosphorylation by PACAP stimulus, Western blot, PAC1/CHO cells; assay type: cell-based
T1 construct: expressed in transfected cells; host or cells: CHO cells
T1 sequence (P70205 21-496): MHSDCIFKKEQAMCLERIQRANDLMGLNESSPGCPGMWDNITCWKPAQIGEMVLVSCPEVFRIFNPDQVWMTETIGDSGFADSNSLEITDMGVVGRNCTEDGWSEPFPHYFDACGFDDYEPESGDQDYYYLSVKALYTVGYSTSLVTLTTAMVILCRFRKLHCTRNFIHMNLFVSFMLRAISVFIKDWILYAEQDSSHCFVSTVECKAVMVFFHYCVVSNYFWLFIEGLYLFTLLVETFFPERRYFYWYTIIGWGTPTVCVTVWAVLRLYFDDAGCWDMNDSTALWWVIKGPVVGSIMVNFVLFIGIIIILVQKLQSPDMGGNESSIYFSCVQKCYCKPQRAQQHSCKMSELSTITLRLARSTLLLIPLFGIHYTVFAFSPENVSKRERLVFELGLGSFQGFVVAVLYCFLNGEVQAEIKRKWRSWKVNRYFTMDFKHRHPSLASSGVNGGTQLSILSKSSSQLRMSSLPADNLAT
Description: The effect of each compound on the phosphorylation of CREB (cAMP-responsive element-binding protein) produced by a PACAP stimulus was examined by Western blot analysis using an anti-phosphorylated CREB (pCREB) antibody with a mouse PAC1 receptor-expressing CHO cells (PAC1/CHO cells) and a mouse VPAC1 receptor-expressing CHO cells (VPAC1/CHO cells).
Specifically, treatment with a compound (PA-8, compound 2j and compound 2o) at 10 pM to 10 nM or a solvent therefor, DMSO (VEH: 0.1% DMSO-containing phosphate buffer solution) was performed for 30 minutes, 1 nM PACAP was then added, and protein was recovered within 30 minutes after a PACAP stimulus.
The effect of each compound on the phosphorylation of CREB (cAMP-responsive element-binding protein) produced by a PACAP stimulus was examined by Western blot analysis using an anti-phosphorylated CREB (pCREB) antibody with a mouse PAC1 receptor-expressing CHO cells (PAC1/CHO cells).

[3] = system: Compound 48/80-induced itch behavior in mice; experiment: Itch behavior induced by Compound 48/80 intradermal administration; assay type: in vivo, mouse; conditions: intrathecal pre-administration (i.t., 10 minutes before i.d.), 1 nmol; Compound 48/80 100 μg/10 μL; FIG. 11
Description: Compound 48/80 (100 μg/10 μL) was intradermally injected into the waist of each mouse (intradermal injection, i.d.). The reaction of biting, licking or scratching the injected site was defined as itch behavior, and the behavioral time was counted every 5 minutes. […] DMSO (10% solution, dissolved in normal saline) is a solvent for PA-8 or PA-9.

Compound: C=CCOc1ccc(C2CC(=O)Nc3nc(N)[nH]c(=O)c32)cc1OC (stereo not drawn) [PA-8]
- biting, licking or scratching behavior induced by PACAP (100 pmol) intradermal administration [1]: suppressed in a dose-dependent manner
- chloroquine-induced itch behavior [2]: almost completely suppressed
- itch behavior induced by application of imiquimod (time spent in scratching) (psoriasis mouse model): significantly suppressed
- CREB phosphorylation by PACAP (1 nM) (mouse PAC1 receptor; PAC1/CHO cells, compound 10 pM to 10 nM for 30 minutes before PACAP, FIG. 4A, 4C, 4D, 5): suppressed CREB phosphorylation
- receptor selectivity (PAC1 versus VPAC1) (mouse PAC1 receptor; concluded from PAC1/CHO and VPAC1/CHO pCREB data): PAC1 receptor selective antagonist
- Compound 48/80-induced itch behavior [3]: almost completely suppressed
